From patent US9018231B2, “Sulfone compounds as 5-HT6 receptor ligands” (Suven Life Sciences Limited, priority 2010, dated 2015)
Where a name gives a salt, the structure may show the parent alone. Read-outs that look alike come from different tables or passages of the source.

Legend:
[1] = molecular target: T1, recombinant human 5-HT6 receptor (Homo sapiens, UniProt P50406); assay: Determination of Kb values for 5-HT6 receptor (CHO pCRE-Luc reporter assay); assay type: cell-based; conditions: antagonism of 10 uM serotonin, luciferase reporter, CHO cells
T1 construct: expressed in transfected cells
T1 sequence (P50406 whole entry): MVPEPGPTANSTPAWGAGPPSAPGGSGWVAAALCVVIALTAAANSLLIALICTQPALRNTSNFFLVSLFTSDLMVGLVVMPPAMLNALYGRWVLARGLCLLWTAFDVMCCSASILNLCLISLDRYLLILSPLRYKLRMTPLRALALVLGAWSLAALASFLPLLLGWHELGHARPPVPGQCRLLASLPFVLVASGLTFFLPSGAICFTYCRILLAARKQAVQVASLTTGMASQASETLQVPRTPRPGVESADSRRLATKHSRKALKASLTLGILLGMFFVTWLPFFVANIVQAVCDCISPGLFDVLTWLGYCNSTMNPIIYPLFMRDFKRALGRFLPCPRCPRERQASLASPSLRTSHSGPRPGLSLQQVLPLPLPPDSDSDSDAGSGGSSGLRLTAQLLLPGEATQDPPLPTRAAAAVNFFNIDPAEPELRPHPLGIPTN
Method: A stable CHO cell line expressing recombinant human 5-HT6 receptor and pCRE-Luc reporter system was used for cell-based assay. The assay offers a non-radioactive based approach to determine binding of a compound to GPCRs. In this specific assay, the level of intracellular cyclic AMP which is modulated by activation or inhibition of the receptor is measured. The recombinant cells harbor luciferase reporter gene under the control of cAMP response element.
The above cells were grown in 96 well clear bottom white plates in Hams F12 medium containing 10% fetal bovine serum (FBS). Prior to the addition of compounds and/or agonist, cells were serum starved overnight. Increasing concentrations of test compounds were added along with 10 uM serotonin in Hams F12 medium containing 1% dialyzed FBS to the cells. The incubation was continued at 37° C. in CO2 incubator for 4 hours. Medium was removed and cells were washed with phosphate buffered saline. The cells were lysed and luciferase activity was measured in a Luminometer. Luminescence units were plotted against the compound concentrations using Graphpad software. EC50 values of the compounds were defined as the concentration required reducing the luciferase activity by 50%. The Kb values were calculated by feeding the concentration of the agonist used in the assay and its EC50 value in the same software.

[2] = Rodent pharmacokinetic study; assay type: in vivo; conditions: plasma, Wistar/Male rat, 10 mg/kg; for AUC(0-t) / half-life / Cmax / Tmax: vehicle water (Ex. 8: 50% PEG 400); for Cmax: read-out: Cmax; for Tmax: read-out: Tmax; for bioavailability: Oral vs Intravenous, read-out: Bioavailability
Method: Male wistar rats (230-280 grams) obtained from NIN (National Institute of Nutrition, Hyderabad, India) were used as an experimental animal. Three to five animals were housed in each cage. Animals were kept fasted over night and maintained on a 12 hours light/dark cycle. Three rats were dosed NCE (10 mg/Kg) orally and intravenously on day 0 and day 2.
At each time point blood was collected by jugular vein. Plasma was stored frozen at −20° C. until analysis. The concentrations of the NCE compound in plasma were determined using LC-MS/MS method. Schedule time points: Pre dose 0.25, 0.5, 1, 1.5, 2, 3, 4, 6, 8, 10, 12 and 24 hours after dosing (n=3). The NCE compounds were quantified in plasma by validated LC-MS/MS method using solid phase extraction technique. NCE compounds were quantified in the calibration range of 2-2000 ng/mL in plasma. Study samples were analyzed using calibration samples in the batch and quality control samples spread across the batch.
Pharmacokinetic parameters Cmax, Tmax, AUCt, T1/2 and Bioavailability were calculated by non-compartmental model using software WinNonlin version 5.1.

[3] = Object recognition task model; assay type: in vivo; conditions: rat, p.o.
Method: The cognition-enhancing properties of compounds of this invention were estimated using a model of animal cognition: the object recognition task model.
Male Wister rats (230-280 grams) obtained from N.I.N. (National Institute of Nutrition, Hyderabad, India) was used as experimental animals. Four animals were housed in each cage. Animals were kept on 20% food deprivation before one day and given water ad libitum throughout the experiment and maintained on a 12 hours light/dark cycle. Also the rats were habituated to individual arenas for 1 hour in the absence of any objects.
One group of 12 rats received vehicle (1 mL/Kg) orally and another set of animals received compound of the formula (I) either orally or i.p., before one hour of the familiar (T1) and choice trial (T2).
The experiment was carried out in a 50×50×50 cm open field made up of acrylic. In the familiarization phase, (T1), the rats were placed individually in the open field for 3 minutes, in which two identical objects (plastic bottles, 12.5 cm height×5.5 cm diameter) covered in yellow masking tape alone (a1 and a2) were positioned in two adjacent corners, 10 cm. from the walls. After 24 hours of the (T1) trial for long-term memory test, the same rats were placed in the same arena as they were placed in T1 trial. Choice phase (T2) rats were allowed to explore the open field for 3 minutes in presence of one familiar object (a3) and one novel object (b) (Amber color glass bottle, 12 cm high and 5 cm in diameter). Familiar objects presented similar textures, colors and sizes. During the T1 and T2 trial, explorations of each object (defined as sniffing, licking, chewing or having moving vibrissae whilst directing the nose towards the object at a distance of less than 1 cm) were recorded separately by stopwatch. Sitting on an object was not regarded as exploratory activity, however, it was rarely observed. T1 is the total time spent exploring the familiar objects (a1+a2). T2 is the total time spent exploring the familiar object and novel object (a3+b).
The object recognition test was performed as described by Ennaceur, A., Delacour, J., 1988, A new one-trial test for neurobiological studies of memory in rats—Behavioural data, Behav. Brain Res., 31, 47-59.

Compound: COc1ccc2[nH]cc(S(=O)(=O)c3ccc(Cl)c(NC4CCN(C)CC4)c3)c2c1.Cl
- melting point: 240.3 to 243.2 °C

Compound: COc1ccc(S(=O)(=O)c2cc(Br)ccc2OC)cc1NC1CCN(C)CC1.Cl [Example 3, N-[5-(5-Bromo-2-methoxybenzenesulfonyl)-2-methoxyphenyl]-N-(1-methylpiperidin-4-yl)amine hydrochloride salt]
- Kb [1]: 0.01 nM
- AUC(0-t) ([2]; Intravenous): 1610 ± 544 ng·h/mL
- half-life ([2]; Intravenous): 1.57 ± 0.21 h
- Cmax ([2]; Intravenous): 1080 ± 569 ng/mL
- Tmax ([2]; Intravenous): 0.12 ± 0.09 h
- bioavailability [2]: 38 ± 1%
- AUC(0-t) ([2]; Oral): 931 ± 186 ng·h/mL
- half-life ([2]; Oral): 1.35 ± 0.27 h
- Cmax ([2]; Oral): 341 ± 60 ng/mL
- Tmax ([2]; Oral): 0.56 ± 0.31 h
- Exploration time mean ± S.E.M, Familiar object ([3]; 1 mg/kg): 4.53 ± 0.72 s
- Exploration time mean ± S.E.M, Novel object ([3]; 1 mg/kg): 10.29 ± 1.54 s
- Inference ([3]; 1 mg/kg): Active

Compound: CN1CCC(Nc2cccc(S(=O)(=O)c3c[nH]c4cc(Cl)ccc34)c2)CC1 [Example 5, N-(1-Methylpiperidin-4-yl)-N-[3-(6-chloro-1H-indole-3-ylsulfonyl)phenyl]amine hydrochloride]
- Kb [1]: 3.38 nM

Compound: CN1CCC(Nc2cccc(S(=O)(=O)c3c[nH]c4ccc(F)cc34)c2)CC1.Cl [Example 6, N-(1-Methylpiperidin-4-yl)-N-[3-(5-fluoro-1H-indole-3-ylsulfonyl)phenyl]amine hydrochloride]
- Kb [1]: 3.59 nM
- melting point: 229.7 to 233.1 °C

Compound: CN1CCC(Nc2cc(S(=O)(=O)c3c[nH]c4cc(Cl)ccc34)ccc2Cl)CC1.Cl [Example 8, N-(1-Methylpiperidin-4-yl)-N-[2-chloro-5-(6-chloro-1H-indole-3-ylsulfonyl)phenyl]amine hydrochloride]
- Kb [1]: 5.7 nM
- AUC(0-t) ([2]; Intravenous): 6950 ± 3450 ng·h/mL
- half-life ([2]; Intravenous): 5.64 ± 0.95 h
- Cmax ([2]; Intravenous): 1340 ± 426 ng/mL
- Tmax ([2]; Intravenous): 0.08 h
- bioavailability [2]: 58 ± 12%
- AUC(0-t) ([2]; Oral): 3810 ± 1340 ng·h/mL
- half-life ([2]; Oral): 9.06 ± 2.13 h
- Cmax ([2]; Oral): 327 ± 99 ng/mL
- Tmax ([2]; Oral): 3 h
- melting point: 189.7 to 194.2 °C

Compound: COc1ccc(S(=O)(=O)c2c[nH]c3ccccc23)cc1NC1CCN(C)CC1 [Example 11, N-(1-Methylpiperidin-4-yl)-N-[2-methoxy-5-(1H-Indole-3-ylsulfonyl)phenyl]amine]
- Kb [1]: 0.05 nM
- Exploration time mean ± S.E.M, Familiar object ([3]; 3 mg/kg): 9.19 ± 1.44 s
- Exploration time mean ± S.E.M, Novel object ([3]; 3 mg/kg): 14.24 ± 1.29 s
- Inference ([3]; 3 mg/kg): Active

Compound: COc1ccc2[nH]cc(S(=O)(=O)c3ccc(OC)c(NC4CCN(C)CC4)c3)c2c1 [Example 13, N-(1-Methylpiperidin-4-yl)-N-[2-methoxy-5-(5-methoxy-1H-Indole-3-ylsulfonyl)phenyl]amine]
- Kb [1]: 0.11 nM

Compound: COc1ccc2[nH]cc(S(=O)(=O)c3ccc(OC)c(NC4CCNCC4)c3)c2c1 [Example 14, N-(Piperidin-4-yl)-N-[2-methoxy-5-(5-methoxy-1H-Indole-3-ylsulfonyl)phenyl]amine]
- Kb [1]: 0.16 nM

Compound: CN1CCC(Nc2cc(S(=O)(=O)c3c[nH]c4cc(Cl)ccc34)ccc2Cl)CC1 [Example 15, N-(1-Methylpiperidin-4-yl)-N-[2-chloro-5-(6-chloro-1H-Indole-3-ylsulfonyl)phenyl] amine]
- melting point: 186.1 to 189.9 °C

Compound: COc1ccc(Br)cc1S(=O)(=O)c1ccc(C)c(NC2CCNCC2F)c1 (centres unmarked) [Example 18, N-[5-(5-Bromo-2-methoxybenzenesulfonyl)-2-methylphenyl]-N-(3-fluoropiperidin-4-yl) amine hydrochloride]
- Kb [1]: 6.1 nM

Compound: COc1ccc(Br)cc1S(=O)(=O)c1ccc(C)c(NC2CCNCC2)c1 [Example 22, N-[5-(5-Bromo-2-methoxybenzenesulfonyl)-2-methylphenyl]-N-(piperidin-4-yl)amine hydrochloride]
- Kb [1]: 1.1 nM

Compound: COc1ccc(Br)cc1S(=O)(=O)c1ccc(C)c(NC2CCN(C)CC2)c1 [Example 23, N-[5-(5-Bromo-2-methoxybenzenesulfonyl)-2-methylphenyl]-N-(1-methylpiperidin-4-yl)amine hydrochloride]
- Kb [1]: 2.1 nM

Compound: COc1ccc(S(=O)(=O)c2cc(Br)ccc2OC)cc1NC1CCNCC1F.Cl (centres unmarked) [Example 28, N-[5-(5-Bromo-2-methoxybenzenesulfonyl)-2-methoxyphenyl]-N-(3-fluoropiperidin-4-yl)amine hydrochloride]
- Kb [1]: 0.1 nM
- AUC(0-t) ([2]; Intravenous): 3470 ± 161 ng·h/mL
- half-life ([2]; Intravenous): 1.46 ± 0.13 h
- Cmax ([2]; Intravenous): 1920 ± 29 ng/mL
- Tmax ([2]; Intravenous): 0.08 h
- bioavailability [2]: 44 ± 18%
- AUC(0-t) ([2]; Oral): 1520 ± 630 ng·h/mL
- half-life ([2]; Oral): 1.36 ± 0.07 h
- Cmax ([2]; Oral): 429 ± 181 ng/mL
- Tmax ([2]; Oral): 0.83 ± 0.29 h
- Exploration time mean ± S.E.M, Familiar object ([3]; 1 mg/kg): 6.26 ± 0.30 s
- Exploration time mean ± S.E.M, Novel object ([3]; 1 mg/kg): 11.46 ± 1.02 s
- Inference ([3]; 1 mg/kg): Active

Compound: COc1ccc(S(=O)(=O)c2cc(Br)ccc2OC)cc1NC1CCNCC1 [Example 29, N-[5-(5-Bromo-2-methoxybenzenesulfonyl)-2-methoxyphenyl]-N-(piperidin-4-yl)amine hydrochloride]
- Kb [1]: 0.1 nM

Compound: COc1ccc(S(=O)(=O)c2ccc(OC)c(NC3CCN(C)CC3)c2)cc1Br [Example 30, N-[5-(3-Bromo-4-methoxybenzenesulfonyl)-2-methoxyphenyl]-N-(1-methylpiperidin-4-yl)amine tartarate]
- Kb [1]: 0.01 nM

Compound: COc1ccc(S(=O)(=O)c2cc(F)ccc2OC)cc1NC1CCN(C)CC1 [Example 31, N-[5-(5-Fluoro-2-methoxybenzenesulfonyl)-2-methoxyphenyl]-N-(1-methylpiperidin-4-yl)amine tartarate]
- Kb [1]: 0.05 nM

Compound: COc1ccc(S(=O)(=O)c2ccc(Cl)cc2)cc1NC1CCN(C)CC1 [Example 32, N-[5-(4-Chlorobenzenesulfonyl)-2-methoxyphenyl]-N-(1-methylpiperidin-4-yl)amine tartarate]
- Kb [1]: 0.06 nM

Compound: COc1ccc(S(=O)(=O)c2ccc(OC)c(NC3CCN(C)CC3)c2)cc1Cl [Example 34, N-[5-(3-Chloro-4-methoxybenzenesulfonyl)-2-methoxyphenyl]-N-(1-methylpiperidin-4-yl)amine tartarate]
- Kb [1]: 0.1 nM

Compound: Cc1ccc(S(=O)(=O)c2ccccc2)cc1NC1CCN(C)CC1 [Example 35, N-(5-Benzenesulfonyl-2-methylphenyl)-N-(1-methylpiperidin-4-yl)amine]
- Exploration time mean ± S.E.M, Familiar object ([3]; 10 mg/kg): 9.37 ± 1.66 s
- Exploration time mean ± S.E.M, Novel object ([3]; 10 mg/kg): 15.81 ± 2.89 s
- Inference ([3]; 10 mg/kg): Active
